Reference: ChEMBL document CHEMBL1201862, “PubChem BioAssay data set” (2004)
Calls of active or inactive are those of the source.

Key:
[1] = target: T1, Apoptotic protease-activating factor 1 (Homo sapiens, UniProt O14727); experiment: SAR analysis of small molecule inhibitors of Apaf-1 in a Fluorescent assay.; assay type: functional; settings: read-out: IC50_Mean
T1 sequence (O14727 whole entry): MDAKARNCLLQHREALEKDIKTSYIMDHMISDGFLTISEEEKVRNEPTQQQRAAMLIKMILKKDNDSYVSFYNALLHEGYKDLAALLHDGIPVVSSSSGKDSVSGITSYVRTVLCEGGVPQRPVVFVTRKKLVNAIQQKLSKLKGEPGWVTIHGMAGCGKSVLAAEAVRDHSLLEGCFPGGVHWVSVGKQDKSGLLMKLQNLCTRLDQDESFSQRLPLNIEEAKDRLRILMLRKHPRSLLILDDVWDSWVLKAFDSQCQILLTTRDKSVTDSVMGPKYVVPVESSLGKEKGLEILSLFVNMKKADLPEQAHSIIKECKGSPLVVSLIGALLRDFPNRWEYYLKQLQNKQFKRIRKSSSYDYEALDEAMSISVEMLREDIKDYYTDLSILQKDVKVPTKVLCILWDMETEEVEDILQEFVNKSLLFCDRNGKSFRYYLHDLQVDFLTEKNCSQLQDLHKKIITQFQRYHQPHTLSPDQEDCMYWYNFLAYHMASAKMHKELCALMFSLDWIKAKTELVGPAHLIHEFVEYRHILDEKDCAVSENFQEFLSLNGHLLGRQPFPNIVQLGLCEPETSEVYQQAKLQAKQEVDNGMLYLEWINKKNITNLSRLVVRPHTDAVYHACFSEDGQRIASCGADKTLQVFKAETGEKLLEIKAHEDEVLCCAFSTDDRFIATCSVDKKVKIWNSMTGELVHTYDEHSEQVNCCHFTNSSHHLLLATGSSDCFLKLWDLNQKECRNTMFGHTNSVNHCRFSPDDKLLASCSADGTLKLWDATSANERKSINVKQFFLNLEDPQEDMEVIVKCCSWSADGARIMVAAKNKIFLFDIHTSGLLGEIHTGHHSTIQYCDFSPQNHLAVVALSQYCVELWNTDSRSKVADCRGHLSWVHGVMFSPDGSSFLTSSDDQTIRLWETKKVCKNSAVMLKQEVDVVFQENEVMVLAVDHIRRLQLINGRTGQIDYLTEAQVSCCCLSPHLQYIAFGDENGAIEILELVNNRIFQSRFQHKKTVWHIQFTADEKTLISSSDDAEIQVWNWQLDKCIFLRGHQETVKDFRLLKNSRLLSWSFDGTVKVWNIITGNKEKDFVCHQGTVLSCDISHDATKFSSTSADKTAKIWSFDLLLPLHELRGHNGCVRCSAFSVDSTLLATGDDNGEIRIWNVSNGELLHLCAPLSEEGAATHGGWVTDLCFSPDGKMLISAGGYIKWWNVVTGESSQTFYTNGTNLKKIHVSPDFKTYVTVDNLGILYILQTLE

[2] = target: RAC-gamma serine/threonine-protein kinase (Homo sapiens, UniProt Q9Y243); assay type: functional
[3] = target: Serine/threonine-protein kinase D3 (Homo sapiens, UniProt O94806); assay type: functional;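 also: determined within a kinase panel screen, with PRKCN as the panel member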
[4] = target: Serine/threonine-protein kinase pim-1 (Homo sapiens, UniProt P11309); assay type: functional
[5] = target: Serine/threonine-protein kinase PAK 1 (Homo sapiens, UniProt Q13153); assay type: functional
LIM domain kinase 1 = LIM domain kinase 1 (Homo sapiens, UniProt P53667); experiment: Navigating the Kinome. Panel member name: LIMK1; assay type: functional
[6] = target: Serine/threonine-protein kinase TAO1 (Homo sapiens, UniProt Q7L7X3); assay type: functional
Chain of Serine/threonine-protein kinase TAO1 (Q7L7X3 whole entry): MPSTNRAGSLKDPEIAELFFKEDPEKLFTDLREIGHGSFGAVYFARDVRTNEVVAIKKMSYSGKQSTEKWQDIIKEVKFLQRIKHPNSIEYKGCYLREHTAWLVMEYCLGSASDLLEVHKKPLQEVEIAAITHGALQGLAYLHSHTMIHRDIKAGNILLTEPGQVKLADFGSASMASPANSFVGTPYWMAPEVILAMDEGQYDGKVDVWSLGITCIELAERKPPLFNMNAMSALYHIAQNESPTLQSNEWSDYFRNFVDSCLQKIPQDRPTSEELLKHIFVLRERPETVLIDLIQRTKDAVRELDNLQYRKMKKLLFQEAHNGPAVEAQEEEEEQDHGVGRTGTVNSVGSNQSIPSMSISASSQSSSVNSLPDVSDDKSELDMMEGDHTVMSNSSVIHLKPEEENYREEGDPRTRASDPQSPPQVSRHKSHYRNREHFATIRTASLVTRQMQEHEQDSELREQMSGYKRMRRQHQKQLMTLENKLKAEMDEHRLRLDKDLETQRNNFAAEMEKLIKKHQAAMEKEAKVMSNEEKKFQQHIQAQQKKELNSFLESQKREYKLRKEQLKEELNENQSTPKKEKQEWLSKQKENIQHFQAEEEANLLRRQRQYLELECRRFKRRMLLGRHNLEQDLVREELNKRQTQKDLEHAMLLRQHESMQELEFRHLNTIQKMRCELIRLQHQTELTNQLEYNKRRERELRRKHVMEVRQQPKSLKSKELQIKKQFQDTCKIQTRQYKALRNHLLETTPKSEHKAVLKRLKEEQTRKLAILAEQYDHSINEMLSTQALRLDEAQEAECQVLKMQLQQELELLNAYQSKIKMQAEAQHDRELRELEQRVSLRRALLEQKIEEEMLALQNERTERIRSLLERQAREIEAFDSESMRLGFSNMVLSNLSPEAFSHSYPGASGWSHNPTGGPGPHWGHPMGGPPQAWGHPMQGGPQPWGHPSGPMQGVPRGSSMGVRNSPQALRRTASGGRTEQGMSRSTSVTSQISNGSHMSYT

[7] = target: Serine/threonine-protein kinase pim-3 (Homo sapiens, UniProt Q86V86); assay type: functional;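 also: value obtained as one member of a broad kinase panel profiling effort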
[8] = target: MAP kinase-activated protein kinase 3 (Homo sapiens, UniProt Q16644); assay type: functional;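 also: value comes from a kinome-wide profiling panel in which MAPKAPK3 is one of the panel members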
Chain of MAP kinase-activated protein kinase 3 (Q16644 whole entry): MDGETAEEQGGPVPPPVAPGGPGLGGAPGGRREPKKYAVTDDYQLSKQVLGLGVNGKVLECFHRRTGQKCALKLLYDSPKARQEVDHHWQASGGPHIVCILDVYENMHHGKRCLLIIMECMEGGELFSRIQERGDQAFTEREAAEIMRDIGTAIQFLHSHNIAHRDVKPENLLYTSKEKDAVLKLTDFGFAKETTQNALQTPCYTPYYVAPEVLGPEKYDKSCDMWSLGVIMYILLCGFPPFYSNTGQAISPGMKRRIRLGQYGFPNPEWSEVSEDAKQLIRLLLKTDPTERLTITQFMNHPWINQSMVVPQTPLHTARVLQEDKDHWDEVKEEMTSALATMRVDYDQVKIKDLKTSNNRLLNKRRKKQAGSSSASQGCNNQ

[9] = target: MAP kinase-interacting serine/threonine-protein kinase 2 (Homo sapiens, UniProt Q9HBH9); assay type: functional
[10] = target: Cyclin-dependent kinase 5 (Homo sapiens, UniProt Q00535); assay type: functional;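 also: CDK5 measured as one member of a kinase profiling panel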
[11] = target: Interleukin-1 receptor-associated kinase 4 (Homo sapiens, UniProt Q9NWZ3); assay type: functional
[12] = target: Mitogen-activated protein kinase kinase kinase kinase 5 (Homo sapiens, UniProt Q9Y4K4); assay type: functional;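 also: measured as one member of a kinome-spanning kinase panel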
[13] = target: Rho-associated protein kinase 1 (Homo sapiens, UniProt Q13464); assay type: functional;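 also: measured within a broad kinome-wide panel profiling many kinases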
[14] = target: Serine/threonine-protein kinase DCLK1 (Homo sapiens, UniProt O15075); assay type: functional;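 also: affinity for DCLK1 (listed as DCAMKL1) measured as one member of a kinome-wide kinase profiling panel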
Chain of Serine/threonine-protein kinase DCLK1 (O15075 whole entry): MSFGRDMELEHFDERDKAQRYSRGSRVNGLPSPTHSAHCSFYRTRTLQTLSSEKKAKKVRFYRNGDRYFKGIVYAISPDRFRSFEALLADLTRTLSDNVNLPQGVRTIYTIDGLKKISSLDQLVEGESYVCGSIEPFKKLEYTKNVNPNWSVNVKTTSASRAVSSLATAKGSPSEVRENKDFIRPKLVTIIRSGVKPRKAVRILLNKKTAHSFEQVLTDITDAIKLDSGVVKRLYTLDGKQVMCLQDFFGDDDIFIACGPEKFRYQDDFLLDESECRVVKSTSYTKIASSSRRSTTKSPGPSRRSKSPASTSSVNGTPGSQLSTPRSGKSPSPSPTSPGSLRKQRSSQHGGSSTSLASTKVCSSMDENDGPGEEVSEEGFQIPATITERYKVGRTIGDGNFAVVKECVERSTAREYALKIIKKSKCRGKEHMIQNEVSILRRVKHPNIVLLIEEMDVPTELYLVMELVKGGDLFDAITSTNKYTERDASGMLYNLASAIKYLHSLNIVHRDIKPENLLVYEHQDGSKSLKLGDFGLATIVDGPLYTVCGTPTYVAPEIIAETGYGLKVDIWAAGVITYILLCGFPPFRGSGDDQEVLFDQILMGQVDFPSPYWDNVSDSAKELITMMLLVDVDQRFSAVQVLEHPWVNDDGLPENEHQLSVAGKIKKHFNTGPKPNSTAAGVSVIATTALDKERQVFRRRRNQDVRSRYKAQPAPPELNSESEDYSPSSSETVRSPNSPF

[15] = target: Serine/threonine-protein kinase Nek2 (Homo sapiens, UniProt P51955); assay type: functional
[16] = target: STE20-like serine/threonine-protein kinase (Homo sapiens, UniProt Q9H2G2); assay type: functional
[17] = target: Mitogen-activated protein kinase kinase kinase kinase 4 (Homo sapiens, UniProt O95819); assay type: functional
[18] = target: Serine/threonine-protein kinase MRCK alpha (Homo sapiens, UniProt Q5VT25); assay type: functional
[19] = target: Serine/threonine-protein kinase BRSK1 (Homo sapiens, UniProt Q8TDC3); assay type: functional;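 also: measured within a kinome-wide kinase panel, with the target listed as KIAA1811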
[20] = target: Dual specificity tyrosine-phosphorylation-regulated kinase 1A (Homo sapiens, UniProt Q13627); assay type: functional;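 also: measured against DYRK1A as one member of a broad kinome profiling panel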
[21] = target: Eukaryotic elongation factor 2 kinase (Homo sapiens, UniProt O00418); assay type: functional
[22] = target: Testis-specific serine/threonine-protein kinase 2 (Homo sapiens, UniProt Q96PF2); assay type: functional;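 also: part of the Navigating the Kinome panel, target entry STK22B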
Chain of Testis-specific serine/threonine-protein kinase 2 (Q96PF2 whole entry): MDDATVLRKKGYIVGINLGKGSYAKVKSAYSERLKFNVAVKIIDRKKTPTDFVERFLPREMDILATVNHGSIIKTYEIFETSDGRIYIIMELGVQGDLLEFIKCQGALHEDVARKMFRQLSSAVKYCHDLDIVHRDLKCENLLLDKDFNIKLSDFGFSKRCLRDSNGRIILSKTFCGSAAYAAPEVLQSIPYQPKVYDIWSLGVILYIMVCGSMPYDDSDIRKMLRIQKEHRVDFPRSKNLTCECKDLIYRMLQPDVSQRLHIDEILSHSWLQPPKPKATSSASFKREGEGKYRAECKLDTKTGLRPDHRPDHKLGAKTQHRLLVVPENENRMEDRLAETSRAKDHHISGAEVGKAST

[23] = target: Cell division cycle 7-related protein kinase (Homo sapiens, UniProt O00311); assay type: functional;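 also: value obtained from a kinome-wide kinase panel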
Chain of Cell division cycle 7-related protein kinase (O00311 whole entry): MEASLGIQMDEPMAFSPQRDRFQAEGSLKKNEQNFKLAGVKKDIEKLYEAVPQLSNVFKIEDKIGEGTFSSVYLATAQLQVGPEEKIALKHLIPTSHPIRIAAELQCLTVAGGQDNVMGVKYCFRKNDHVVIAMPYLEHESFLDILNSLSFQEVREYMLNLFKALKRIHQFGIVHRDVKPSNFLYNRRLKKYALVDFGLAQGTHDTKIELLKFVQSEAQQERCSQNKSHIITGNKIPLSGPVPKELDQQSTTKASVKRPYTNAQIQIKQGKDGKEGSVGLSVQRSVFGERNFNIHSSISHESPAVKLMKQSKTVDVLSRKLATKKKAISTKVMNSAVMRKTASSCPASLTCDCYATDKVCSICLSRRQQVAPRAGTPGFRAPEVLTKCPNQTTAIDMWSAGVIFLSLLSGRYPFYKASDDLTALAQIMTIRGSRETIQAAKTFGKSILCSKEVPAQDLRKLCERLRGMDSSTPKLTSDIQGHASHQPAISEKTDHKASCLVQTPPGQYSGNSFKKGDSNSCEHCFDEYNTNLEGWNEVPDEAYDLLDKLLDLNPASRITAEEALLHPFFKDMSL

[24] = target: Protein kinase C gamma type (Homo sapiens, UniProt P05129); assay type: functional
[25] = target: Dual specificity tyrosine-phosphorylation-regulated kinase 3 (Homo sapiens, UniProt O43781); assay type: functional;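 also: measured as one member of a broad kinase panel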
Chain of Dual specificity tyrosine-phosphorylation-regulated kinase 3 (O43781 whole entry): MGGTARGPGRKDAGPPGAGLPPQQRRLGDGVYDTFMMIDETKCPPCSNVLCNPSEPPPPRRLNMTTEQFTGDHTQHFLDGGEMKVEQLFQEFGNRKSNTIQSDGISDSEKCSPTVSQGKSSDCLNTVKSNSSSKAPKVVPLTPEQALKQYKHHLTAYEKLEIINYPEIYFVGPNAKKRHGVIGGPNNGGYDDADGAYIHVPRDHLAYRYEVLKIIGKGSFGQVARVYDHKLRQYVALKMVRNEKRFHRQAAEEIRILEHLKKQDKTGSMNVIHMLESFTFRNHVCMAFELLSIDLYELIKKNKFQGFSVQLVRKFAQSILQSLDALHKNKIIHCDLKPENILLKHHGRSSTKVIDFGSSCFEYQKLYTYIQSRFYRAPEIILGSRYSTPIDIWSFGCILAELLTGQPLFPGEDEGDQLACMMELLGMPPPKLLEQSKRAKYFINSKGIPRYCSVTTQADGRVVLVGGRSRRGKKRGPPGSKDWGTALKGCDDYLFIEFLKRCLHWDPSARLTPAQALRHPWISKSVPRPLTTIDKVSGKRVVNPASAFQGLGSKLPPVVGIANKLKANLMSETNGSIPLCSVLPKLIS

[26] = target: G protein-coupled receptor kinase 5 (Homo sapiens, UniProt P34947); experiment: Navigating the Kinome. Panel member name: GPRK5; assay type: functional
[27] = target: Dual specificity tyrosine-phosphorylation-regulated kinase 4 (Homo sapiens, UniProt Q9NR20); assay type: functional
[28] = target: Lymphokine-activated killer T-cell-originated protein kinase (Homo sapiens, UniProt Q96KB5); assay type: functional;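 also: value comes from a kinase panel screen in which TOPK was one of the panel members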
Chain of Lymphokine-activated killer T-cell-originated protein kinase (Q96KB5 whole entry): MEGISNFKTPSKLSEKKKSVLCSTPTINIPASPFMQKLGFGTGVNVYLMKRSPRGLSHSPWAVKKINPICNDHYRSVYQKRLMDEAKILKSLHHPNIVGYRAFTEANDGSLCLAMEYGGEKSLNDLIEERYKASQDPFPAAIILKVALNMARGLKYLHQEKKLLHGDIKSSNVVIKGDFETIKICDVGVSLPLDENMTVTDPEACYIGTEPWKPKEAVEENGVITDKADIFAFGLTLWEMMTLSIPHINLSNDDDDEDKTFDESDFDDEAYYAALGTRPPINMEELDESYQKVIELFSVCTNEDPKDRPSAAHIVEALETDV

[29] = rise of 2N DNA cells, HeLa – IC50, dose response (AID 1117349); assay type: functional, cell-based
[30] = rise of 4N DNA cells, HeLa – IC50, dose response (AID 1117351); assay type: functional, cell-based

In the case of `Cc1ccc(-c2nc3cc(NC(=O)c4cccs4)ccc3[nH]2)o1`, the IC50 [1] is reported as > 100 µM (inactive).
With `COc1ccc(C=C2SC(=Nc3ccccc3)NC2=O)cc1OC` the Ki [2] was > 10 µM (inactive), the Ki [3] was > 10 µM (inactive) and the Ki [4] was 1.58 µM (active). The Ki [5] was > 10 µM (inactive), the Ki (LIM domain kinase 1) was > 10 µM (inactive) and the Ki [6] was > 10 µM (inactive). The Ki [7] was 1 µM (active), the Ki [8] was > 10 µM (inactive) and the Ki [9] was 6.31 µM (active). For the same molecule, the Ki [10] was > 10 µM (inactive), the Ki [11] was > 10 µM (inactive) and the Ki [12] was 6.31 µM (active). For the same molecule, the Ki [13] was > 10 µM (inactive), the Ki [14] was > 10 µM (inactive) and the Ki [15] was > 10 µM (inactive). The Ki [16] was > 10 µM (inactive), the Ki [17] was 3.98 µM (active) and the Ki [18] was > 10 µM (inactive). For the same molecule, the Ki [19] was > 10 µM (inactive) and the Ki [20] was 6.31 µM (active).
With `Cc1nc(Nc2ncc(C(=O)Nc3c(C)cccc3Cl)s2)cc(N2CCN(CCO)CC2)n1` [DASATINIB] the Ki [21] was > 3.98 µM (inactive), the Ki [22] was > 1.58 µM (inactive) and the Ki [23] was > 1.26 µM (inactive). For the same molecule, the Ki [24] was > 7.94 µM (inactive), the Ki [25] was 1.26 µM (active) and the Ki [8] was > 10 µM (inactive). The Ki [26] was > 3.98 µM (inactive), the Ki [27] was > 7.94 µM (inactive) and the Ki [28] was > 10 µM (inactive). The IC50 [29] was > 10 µM (inactive) and the IC50 [30] was > 10 µM (inactive).
